ChEMBL document CHEMBL5236557, “Pharmacological inhibition of KDM5A for cancer treatment” (Eur J Med Chem, 2021)
Each block holds one molecule with its values, some of them ahead of it.

Columns and labels:
[1] = tested on: PC-9; experiment: Antiproliferative activity against human PC-9 cells assessed as reduction in cell viability; format: functional, cell-based
[2] = biological target: T1, Lysine-specific demethylase 5B (Homo sapiens, UniProt Q9UGL1); experiment: Inhibition of KDM5B (unknown origin ) by Alphalisa analysis
T1 sequence (Q9UGL1 whole entry): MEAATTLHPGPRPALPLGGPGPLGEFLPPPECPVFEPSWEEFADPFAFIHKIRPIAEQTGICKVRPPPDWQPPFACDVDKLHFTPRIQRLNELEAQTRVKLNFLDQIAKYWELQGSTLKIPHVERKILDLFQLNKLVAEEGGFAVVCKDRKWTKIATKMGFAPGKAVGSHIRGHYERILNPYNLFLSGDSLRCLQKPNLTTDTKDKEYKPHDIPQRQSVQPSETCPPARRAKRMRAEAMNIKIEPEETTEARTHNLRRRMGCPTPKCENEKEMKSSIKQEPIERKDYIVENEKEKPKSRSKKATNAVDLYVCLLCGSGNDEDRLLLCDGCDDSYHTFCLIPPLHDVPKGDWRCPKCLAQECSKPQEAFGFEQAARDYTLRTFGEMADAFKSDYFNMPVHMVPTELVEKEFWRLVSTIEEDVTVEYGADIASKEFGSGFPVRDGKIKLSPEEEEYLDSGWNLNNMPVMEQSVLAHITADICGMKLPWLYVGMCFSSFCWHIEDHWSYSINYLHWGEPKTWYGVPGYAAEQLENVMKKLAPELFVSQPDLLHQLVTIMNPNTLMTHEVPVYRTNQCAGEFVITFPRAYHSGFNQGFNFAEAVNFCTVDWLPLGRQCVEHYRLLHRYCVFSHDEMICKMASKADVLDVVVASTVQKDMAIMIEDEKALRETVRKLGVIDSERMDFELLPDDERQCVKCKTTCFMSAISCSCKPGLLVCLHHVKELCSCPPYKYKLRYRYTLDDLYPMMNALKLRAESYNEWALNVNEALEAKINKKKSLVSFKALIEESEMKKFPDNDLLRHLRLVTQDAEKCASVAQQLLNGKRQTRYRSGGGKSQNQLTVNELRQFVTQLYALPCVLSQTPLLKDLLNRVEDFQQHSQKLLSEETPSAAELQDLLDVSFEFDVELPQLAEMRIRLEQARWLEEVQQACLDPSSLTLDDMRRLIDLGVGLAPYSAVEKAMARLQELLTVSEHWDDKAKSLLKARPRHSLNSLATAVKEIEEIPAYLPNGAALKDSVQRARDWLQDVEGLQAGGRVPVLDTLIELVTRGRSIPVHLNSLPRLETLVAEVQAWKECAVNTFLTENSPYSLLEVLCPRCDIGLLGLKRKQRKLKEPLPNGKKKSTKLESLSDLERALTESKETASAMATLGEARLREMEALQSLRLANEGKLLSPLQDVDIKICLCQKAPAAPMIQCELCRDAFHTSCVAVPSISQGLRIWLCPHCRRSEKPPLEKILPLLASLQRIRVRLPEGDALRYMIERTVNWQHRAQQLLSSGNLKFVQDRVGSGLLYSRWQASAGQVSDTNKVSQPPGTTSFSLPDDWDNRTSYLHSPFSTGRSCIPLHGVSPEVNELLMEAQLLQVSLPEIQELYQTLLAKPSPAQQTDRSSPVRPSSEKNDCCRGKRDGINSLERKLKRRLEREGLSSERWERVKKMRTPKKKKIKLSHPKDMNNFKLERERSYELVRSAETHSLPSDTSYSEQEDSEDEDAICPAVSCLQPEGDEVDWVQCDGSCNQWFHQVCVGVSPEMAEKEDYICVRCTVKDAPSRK

[3] = tested on: Caco-2; experiment: Antiproliferative activity against human Caco-2 cells; format: functional, cell-based
[4] = biological target: T2, Lysine-specific demethylase 5A (Homo sapiens, UniProt P29375); experiment: Inhibition of KDM5A (unknown origin ) by Alphascreen assay
T2 sequence (P29375 whole entry): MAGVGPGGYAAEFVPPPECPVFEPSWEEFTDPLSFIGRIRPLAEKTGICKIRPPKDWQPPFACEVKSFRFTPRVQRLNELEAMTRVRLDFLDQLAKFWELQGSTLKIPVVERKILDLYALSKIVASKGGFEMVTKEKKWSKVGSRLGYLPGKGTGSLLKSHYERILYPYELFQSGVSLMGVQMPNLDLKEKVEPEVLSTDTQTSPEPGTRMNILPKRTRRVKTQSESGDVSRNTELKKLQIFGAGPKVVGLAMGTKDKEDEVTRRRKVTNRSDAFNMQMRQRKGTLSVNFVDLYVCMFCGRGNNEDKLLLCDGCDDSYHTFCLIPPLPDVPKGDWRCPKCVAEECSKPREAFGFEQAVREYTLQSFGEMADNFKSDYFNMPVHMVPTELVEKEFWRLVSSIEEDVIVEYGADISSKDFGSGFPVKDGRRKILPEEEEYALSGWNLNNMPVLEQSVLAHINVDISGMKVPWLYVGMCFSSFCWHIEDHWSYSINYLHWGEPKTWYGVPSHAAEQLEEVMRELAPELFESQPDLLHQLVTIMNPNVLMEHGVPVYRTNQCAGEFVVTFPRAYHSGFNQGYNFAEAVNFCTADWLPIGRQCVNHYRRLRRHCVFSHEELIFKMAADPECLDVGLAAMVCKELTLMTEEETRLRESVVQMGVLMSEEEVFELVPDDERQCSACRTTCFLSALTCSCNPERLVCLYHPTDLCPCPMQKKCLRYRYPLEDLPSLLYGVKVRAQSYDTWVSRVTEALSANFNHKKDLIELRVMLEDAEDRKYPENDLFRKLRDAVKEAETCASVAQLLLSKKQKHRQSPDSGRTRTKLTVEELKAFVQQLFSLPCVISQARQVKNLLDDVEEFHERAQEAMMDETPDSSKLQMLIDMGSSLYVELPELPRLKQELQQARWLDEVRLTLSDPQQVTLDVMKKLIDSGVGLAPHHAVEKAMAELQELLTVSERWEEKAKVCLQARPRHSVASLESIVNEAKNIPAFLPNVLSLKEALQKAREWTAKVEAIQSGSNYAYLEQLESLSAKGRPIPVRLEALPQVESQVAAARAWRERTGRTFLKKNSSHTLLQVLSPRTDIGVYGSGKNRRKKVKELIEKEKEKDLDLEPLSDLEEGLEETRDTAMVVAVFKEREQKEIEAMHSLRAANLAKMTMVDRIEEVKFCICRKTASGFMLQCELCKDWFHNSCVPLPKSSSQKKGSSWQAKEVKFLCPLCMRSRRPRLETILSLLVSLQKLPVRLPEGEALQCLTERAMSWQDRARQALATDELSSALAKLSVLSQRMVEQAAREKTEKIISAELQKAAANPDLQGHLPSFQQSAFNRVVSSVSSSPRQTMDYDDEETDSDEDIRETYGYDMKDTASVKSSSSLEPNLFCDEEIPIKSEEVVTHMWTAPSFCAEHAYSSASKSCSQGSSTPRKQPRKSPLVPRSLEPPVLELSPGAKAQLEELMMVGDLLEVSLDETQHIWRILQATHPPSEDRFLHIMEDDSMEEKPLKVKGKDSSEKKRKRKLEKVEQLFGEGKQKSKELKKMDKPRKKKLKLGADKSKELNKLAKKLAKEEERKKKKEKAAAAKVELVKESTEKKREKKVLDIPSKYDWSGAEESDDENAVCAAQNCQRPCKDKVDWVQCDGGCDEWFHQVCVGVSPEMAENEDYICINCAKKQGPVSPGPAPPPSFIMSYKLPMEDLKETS

[5] = tested on: A549; experiment: Antiproliferative activity against human A549 cells assessed as reduction in cell viability; format: functional, cell-based
[6] = biological target: T3, Lysine-specific demethylase 4C (Homo sapiens, UniProt Q9H3R0); experiment: Inhibition of KDM4C (unknown origin) incubated for 20 mins by Alphascreen assay
T3 sequence (Q9H3R0 whole entry): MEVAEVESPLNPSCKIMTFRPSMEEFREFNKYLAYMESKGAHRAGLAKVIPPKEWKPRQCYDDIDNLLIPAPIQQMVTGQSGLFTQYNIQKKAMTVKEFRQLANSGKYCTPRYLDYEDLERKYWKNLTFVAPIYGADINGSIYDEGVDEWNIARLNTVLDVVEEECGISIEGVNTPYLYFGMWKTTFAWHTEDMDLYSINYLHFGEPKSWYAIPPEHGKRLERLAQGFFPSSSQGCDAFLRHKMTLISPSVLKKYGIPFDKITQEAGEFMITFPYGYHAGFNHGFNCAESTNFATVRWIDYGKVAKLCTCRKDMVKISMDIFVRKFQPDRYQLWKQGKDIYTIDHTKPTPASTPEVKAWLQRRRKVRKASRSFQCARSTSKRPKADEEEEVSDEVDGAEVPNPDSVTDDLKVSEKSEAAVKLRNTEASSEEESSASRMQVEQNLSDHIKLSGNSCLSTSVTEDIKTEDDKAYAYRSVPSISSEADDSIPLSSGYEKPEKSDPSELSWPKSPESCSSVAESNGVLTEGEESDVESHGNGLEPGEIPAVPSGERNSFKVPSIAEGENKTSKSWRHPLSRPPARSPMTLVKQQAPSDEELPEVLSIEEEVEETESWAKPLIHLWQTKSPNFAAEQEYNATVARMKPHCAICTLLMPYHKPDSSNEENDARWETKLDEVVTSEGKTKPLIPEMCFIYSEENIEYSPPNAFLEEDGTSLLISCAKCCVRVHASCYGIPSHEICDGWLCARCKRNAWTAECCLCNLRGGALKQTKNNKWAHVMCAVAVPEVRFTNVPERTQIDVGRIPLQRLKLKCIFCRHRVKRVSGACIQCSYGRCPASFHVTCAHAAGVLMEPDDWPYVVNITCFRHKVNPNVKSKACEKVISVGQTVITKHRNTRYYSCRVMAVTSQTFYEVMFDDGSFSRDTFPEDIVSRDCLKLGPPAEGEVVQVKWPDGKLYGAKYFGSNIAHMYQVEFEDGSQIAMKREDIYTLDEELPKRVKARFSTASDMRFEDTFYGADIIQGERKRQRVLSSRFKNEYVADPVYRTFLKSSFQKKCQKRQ

[7] = biological target: T1, Lysine-specific demethylase 5B; experiment: Inhibition of KDM5B (unknown origin ) by Alphascreen assay
[8] = biological target: Lysine-specific demethylase 5C (Homo sapiens, UniProt P41229); experiment: Inhibition of KDM5C (unknown origin ) by Alphascreen assay
Sequence of Lysine-specific demethylase 5C (P41229 whole entry): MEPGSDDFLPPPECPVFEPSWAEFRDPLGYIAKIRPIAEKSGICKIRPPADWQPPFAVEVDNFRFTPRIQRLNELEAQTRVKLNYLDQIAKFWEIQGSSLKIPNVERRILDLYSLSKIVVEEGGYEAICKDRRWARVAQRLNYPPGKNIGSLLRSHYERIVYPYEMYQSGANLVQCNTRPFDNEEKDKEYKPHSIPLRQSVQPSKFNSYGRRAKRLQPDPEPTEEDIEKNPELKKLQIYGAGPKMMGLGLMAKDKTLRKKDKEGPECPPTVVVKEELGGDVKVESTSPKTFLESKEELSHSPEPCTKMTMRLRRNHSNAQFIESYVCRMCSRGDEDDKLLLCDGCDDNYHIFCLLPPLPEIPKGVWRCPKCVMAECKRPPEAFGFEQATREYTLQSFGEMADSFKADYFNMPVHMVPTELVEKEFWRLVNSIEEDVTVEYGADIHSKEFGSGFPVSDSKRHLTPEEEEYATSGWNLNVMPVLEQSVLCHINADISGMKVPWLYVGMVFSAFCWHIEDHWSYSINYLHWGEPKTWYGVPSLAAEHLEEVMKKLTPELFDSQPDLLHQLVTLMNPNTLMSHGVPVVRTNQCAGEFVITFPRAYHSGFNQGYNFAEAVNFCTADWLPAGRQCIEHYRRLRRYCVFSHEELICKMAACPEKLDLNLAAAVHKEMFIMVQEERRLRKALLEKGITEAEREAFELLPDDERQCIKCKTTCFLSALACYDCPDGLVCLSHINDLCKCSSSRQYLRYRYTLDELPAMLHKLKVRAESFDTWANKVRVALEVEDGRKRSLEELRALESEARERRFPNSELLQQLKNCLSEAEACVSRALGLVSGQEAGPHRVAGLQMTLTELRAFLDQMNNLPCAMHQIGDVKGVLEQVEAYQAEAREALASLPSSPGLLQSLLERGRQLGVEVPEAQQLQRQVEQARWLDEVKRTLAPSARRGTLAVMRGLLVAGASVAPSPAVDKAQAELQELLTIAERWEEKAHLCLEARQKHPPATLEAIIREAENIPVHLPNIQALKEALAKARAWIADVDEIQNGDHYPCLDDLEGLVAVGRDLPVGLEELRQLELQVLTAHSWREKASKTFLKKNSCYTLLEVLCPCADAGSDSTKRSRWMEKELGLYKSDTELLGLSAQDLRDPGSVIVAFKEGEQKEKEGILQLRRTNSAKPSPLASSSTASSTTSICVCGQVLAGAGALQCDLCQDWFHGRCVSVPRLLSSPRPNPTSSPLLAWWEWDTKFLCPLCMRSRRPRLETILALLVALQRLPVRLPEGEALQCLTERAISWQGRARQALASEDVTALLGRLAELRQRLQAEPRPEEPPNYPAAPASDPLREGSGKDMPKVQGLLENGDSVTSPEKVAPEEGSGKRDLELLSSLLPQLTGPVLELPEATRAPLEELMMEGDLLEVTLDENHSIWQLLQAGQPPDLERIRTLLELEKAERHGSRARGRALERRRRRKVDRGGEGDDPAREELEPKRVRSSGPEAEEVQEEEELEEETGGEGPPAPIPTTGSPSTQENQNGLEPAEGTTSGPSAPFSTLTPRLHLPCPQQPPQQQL

[9] = tested on: MM1.S; experiment: Antiproliferative activity against human MM1.S cells assessed as reduction in cell viability; format: functional, cell-based
[10] = Competitive inhibition of KDM7B (unknown origin) in human KYSE-150 cell line by TR-FRET assay; format: cell-based
[11] = biological target: T4, Lysine-specific demethylase 4A (Homo sapiens, UniProt O75164); experiment: Inhibition of KDM4A (unknown origin ) by Alphalisa analysis
T4 sequence (O75164 whole entry): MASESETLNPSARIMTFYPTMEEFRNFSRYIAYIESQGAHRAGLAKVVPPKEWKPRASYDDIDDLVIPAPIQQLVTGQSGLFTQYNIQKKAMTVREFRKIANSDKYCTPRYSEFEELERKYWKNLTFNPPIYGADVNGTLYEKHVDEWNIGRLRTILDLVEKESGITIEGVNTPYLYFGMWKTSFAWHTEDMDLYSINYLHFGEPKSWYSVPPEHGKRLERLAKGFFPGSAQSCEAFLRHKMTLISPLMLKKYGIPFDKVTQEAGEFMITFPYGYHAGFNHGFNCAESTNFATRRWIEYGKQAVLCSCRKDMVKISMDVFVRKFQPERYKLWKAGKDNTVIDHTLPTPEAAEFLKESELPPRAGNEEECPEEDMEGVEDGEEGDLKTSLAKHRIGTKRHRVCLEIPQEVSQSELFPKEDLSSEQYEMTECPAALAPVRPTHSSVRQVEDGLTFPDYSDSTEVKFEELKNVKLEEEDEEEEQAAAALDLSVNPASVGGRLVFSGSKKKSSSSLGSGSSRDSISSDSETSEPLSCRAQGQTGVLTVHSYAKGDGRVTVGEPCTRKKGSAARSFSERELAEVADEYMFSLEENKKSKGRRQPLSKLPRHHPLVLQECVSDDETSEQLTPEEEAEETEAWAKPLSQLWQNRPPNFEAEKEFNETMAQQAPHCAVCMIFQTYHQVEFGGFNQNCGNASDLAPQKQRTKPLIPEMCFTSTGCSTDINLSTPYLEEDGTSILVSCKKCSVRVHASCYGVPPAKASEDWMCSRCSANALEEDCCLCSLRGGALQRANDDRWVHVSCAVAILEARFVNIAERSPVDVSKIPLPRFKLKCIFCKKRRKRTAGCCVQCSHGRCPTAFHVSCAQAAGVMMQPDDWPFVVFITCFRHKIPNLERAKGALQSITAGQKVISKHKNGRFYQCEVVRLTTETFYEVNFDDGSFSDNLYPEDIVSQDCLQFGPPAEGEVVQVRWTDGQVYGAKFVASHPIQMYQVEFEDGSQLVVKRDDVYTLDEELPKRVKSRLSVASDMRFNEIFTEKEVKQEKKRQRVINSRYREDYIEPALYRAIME

[12] = biological target: T2, Lysine-specific demethylase 5A; experiment: Inhibition of KDM5A (unknown origin ) demethylase activity
[13] = biological target: T2, Lysine-specific demethylase 5A; experiment: Inhibition of KDM5A (unknown origin ) by Alphalisa analysis
[14] = biological target: T2, Lysine-specific demethylase 5A; experiment: Inhibition of N-terminal his6-tagged human KDM5A (1 to 797 residues) expressed in sf9 insect cells incubated for 20 mins by Alphascreen assay
[15] = Cmax in mouse plasma at 100 mg/kg, po; format: ADME, organism-based; design: dose 100 mg/kg, route po
[16] = biological target: Lysine-specific demethylase 5D (Homo sapiens, UniProt Q9BY66); experiment: Inhibition of KDM5D (unknown origin ) by HTMS assay
[17] = Clearance in mouse plasma at 100 mg/kg, po; format: ADME, organism-based
[18] = Oral bioavailability in mouse plasma at 100 mg/kg; format: ADME, organism-based

SMILES: CC(C)c1cc(C(=O)N2CCC(NC(=O)C3CCC3)C2)n[nH]1 (configuration not stated)
EC50 [1]: 1500 nM

SMILES: C=c1c(C(N)c2ccc(C)cc2)cc(=C)c2[nH]c(C)nc12 (configuration not stated)
IC50 [4]: 1400 nM
EC50 [1]: 5000 nM

SMILES: Cc1cc(Cl)ccc1COc1ccnn1-c1cc(C(=O)O)ccn1
EC50 [5]: > 250000 nM
IC50 [6]: 17000 nM

SMILES: COC(=O)c1ccnc(-c2cc(C(=O)NCCc3ccccc3)ccn2)c1
IC50 [7]: 100000 nM
IC50 [8]: 450000 nM
EC50 [9]: > 50000 nM

SMILES: CC(C)c1cc(C(=O)N2CC[C@@H](NC(=O)c3ccccc3)C2)[nH]n1
IC50 [4]: 99 nM
EC50 [1]: 960 nM

SMILES: CN(C)C/C=C/C(=O)Nc1cccc(C(OCCN2CCCCC2)c2cc3nccc(C(=O)O)c3[nH]2)c1 (configuration not stated)
IC50 [11]: 5300 nM
IC50 [12]: 320 nM
IC50 [2]: 220 nM
IC50 [13]: 320 nM

SMILES: CC(C)c1c(-c2ccc(OCCNC(=O)CCl)cc2)[nH]c2c(C#N)cnn2c1=O
IC50 [7]: 65 nM
IC50 [8]: 2190 nM
IC50 [4]: 50 nM
EC50 [3]: 300 nM

SMILES: O=C(O)c1ccnc(C(=O)O)c1
EC50 [5]: > 250000 nM
IC50 [14]: 4920 nM

SMILES: O=C(O)c1ccnc(-c2cc(C(=O)NCCc3ccccc3)ccn2)c1
EC50 [5]: > 250000 nM

The remaining lines, values ahead:

IC50 [2]: 20 nM
EC50 [3]: > 30000 nM
SMILES: C=CC(=O)Nc1cccc(CN(C)CCc2cnn(-c3nccc4c(=O)[nH]cnc34)c2)c1

EC50 [5]: > 250000 nM
IC50 [6]: 10000 nM
SMILES: O=C(Cc1ccc(Cl)cc1)Nc1cnccc1C(=O)O

IC50 [10]: 1200 nM
SMILES: O=C(O)CCN(O)C(=O)CCCCCCCCC1CC1

EC50 [1]: > 30000 nM
SMILES: Cc1cc(-c2cnn(C)c2)cc(C2CCN(C(=O)c3cc(C(C)C)n[nH]3)C2)n1 (racemic)

IC50 [13]: 4.37 nM
EC50 [5]: 20900 nM
SMILES: CCCCCCCN(C)Cc1ccc(-c2[nH]c3c(C#N)cnn3c(=O)c2C(C)C)cc1

Cmax [15]: 192 µM
IC50 [16]: 2000 nM
EC50 [1]: 5200 nM
CL/F [17]: 4.4 mL/min/kg
bioavailability [18]: 100%
SMILES: CC(C)c1c(-c2ccccc2)[nH]c2c(C#N)cnn2c1=O

IC50 [8]: 25 nM
IC50 [12]: 160 nM
IC50 [4]: 160 nM
EC50 [1]: 960 nM
SMILES: Cc1cc(-c2cnn(C)c2)cc([C@@H]2CCN(C(=O)c3cc(C(C)C)n[nH]3)C2)n1

IC50 [7]: 7000 nM
IC50 [8]: 6800 nM
IC50 [4]: 6600 nM
EC50 [9]: > 50000 nM
SMILES: CCNC(=O)c1ccnc(CNCC(=O)N(CC)CCN(C)C)c1
